Consider 17 compounds from PubChem BioAssay AID1347039 (Raney Lab, University of Arkansas for Medical Sciences …, 2019).

Records with an inconclusive call do not appear. Activity calls are given as the source filed them.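 The calls were made as follows: active = remaining helicase activity under 10% at 30 micromolar; inconclusive = remaining helicase activity between 10% and 50%; inactive = remaining helicase activity over 50%.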

The experiment relates to Hepatitis C virus NS3 helicase. As to the kind of experiment: HCV NS3 helicase DNA unwinding inhibitors, primary screen, biochemical, fluorescence, FAM-quenched DNA substrate, full-length NS3 (AID 1347039). The note with it: recombinant NS3 DNA unwinding, FAM fluorescence rate; at 30 µM; stronger effect = lower value.
On to `COc1ccc(C(=O)n2cc(C=C3C(=O)NC(=S)NC3=O)c3ccccc32)cc1`, for which the remaining helicase activity was 54.6% (inactive).

On to `COc1ccc(C(=O)n2cc(C=C3C(=O)NC(=S)NC3=O)c3cc(Br)ccc32)cc1`, for which the remaining helicase activity was 61.9% (inactive).

For the compound `O=C1NC(=S)NC(=O)C1=Cc1cn(C(=O)c2cccc3ccccc23)c2ccc(Cl)cc12`, the remaining helicase activity was 33.4% (inactive). With `O=C1NC(=S)NC(=O)C1=Cc1cn(C(=O)c2ccccc2Br)c2ccc(Cl)cc12`, the remaining helicase activity is 83.8% (inactive). Turning to `COc1ccc2c(c1)c(C=C1C(=O)NC(=S)NC1=O)cn2C(=O)c1ccc2ccccc2c1`, the remaining helicase activity was 6.3%. In the case of `O=C1NC(=S)NC(=O)C1=Cc1cn(C(=O)c2ccccc2)c2ccccc12` it was 56.3% (inactive). In the case of `COc1ccc(C(=O)n2cc(C=C3C(=O)NC(=S)NC3=O)c3cc(OC)ccc32)cc1` it was 55.2% (inactive); in that of `O=C1NC(=S)NC(=O)C1=Cc1cn(C(=O)c2ccc3ccccc3c2)c2ccc(Cl)cc12`, 73.3% (inactive). Consider `O=C1NC(=S)NC(=O)C1=Cc1cn(C(=O)c2ccccc2)c2ccc(Cl)cc12`, for which the remaining helicase activity was 73.2% (inactive).

Turning to `COc1ccc(C(=O)n2cc(C=C3C(=O)NC(=S)NC3=O)c3cc(Cl)ccc32)cc1`, the remaining helicase activity is 53.2% (inactive).

For `O=C1NC(=S)NC(=O)C1=Cc1cn(C(=O)c2ccc(F)cc2)c2ccccc12`, the remaining helicase activity is 51.1% (inactive). `O=C1NC(=S)NC(=O)C1=Cc1cn(C(=O)c2ccc3ccccc3c2)c2ccccc12`: the remaining helicase activity is 0%. As to `O=C1NC(=S)NC(=O)C1=Cc1cn(C(=O)c2ccccc2Br)c2ccc(Br)cc12`, the remaining helicase activity was 53.2% (inactive). Next, `O=C1NC(=S)NC(=O)C1=Cc1cn(C(=O)c2ccccc2Br)c2ccccc12`: 63.5% (inactive); `COc1ccc2c(c1)c(C=C1C(=O)NC(=S)NC1=O)cn2C(=O)c1ccccc1`: 79.2% (inactive).

On to `O=C1NC(=S)NC(=O)C1=Cc1cn(C(=O)c2cccc3ccccc23)c2ccccc12`, for which the remaining helicase activity was 22.3% (inactive). In the case of `COc1ccc2c(c1)c(C=C1C(=O)NC(=S)NC1=O)cn2C(=O)c1cccc2ccccc12` it was 0%.
